Laboratory results from article PMC3923730 (Journal of Translational Medicine, 2014).

Legend:
[1] = tested on: myocardial infarction model in rats; design: method as in PMID 20215409; conditions: rat myocardial infarction model, 2.5 mg/kg formulated in HPBCD; cited from earlier work
[2] = Solubility in formulation vehicle; assay type: physicochemical; conditions: in Intralipid® 30 (IL30), concentrations up to
[3] = TRO40303 heart level measurement in rats; assay type: in vivo; conditions: rat, 1 mg/kg i.v. in IL30 10 min before CAO or 10 min before CAR, 5 min post reperfusion, AAR and remainder of left ventricle
Experimental: TRO40303 was administered by intravenous (i.v.) bolus to healthy rats at doses of 0.3, 1, 3 and 10 mg/kg in IL30 under isoflurane gas anaesthesia. A maximum of 0.25 mL of blood was collected into lithium heparin tubes at 5, 15 and 30 min, 1 h, 2 h, 4 h, 8 h and 24 h after drug administration (3 rats per time point). The blood samples were cooled on ice and plasma samples were prepared within 60 min of sampling by centrifugation at 1500 g at 4 °C for 10 min and stored at –20°C until analysis. For heart level measurements, TRO40303 was administrated i.v. to rats undergoing the myocardial infarction procedure at the dose of 1 mg/kg in IL30 either 10 min before CAO or 10 min before CAR. Five min after CAR, rats were anesthetised and sacrificed, hearts were isolated and washed with saline. […] After TRO40303 plasma concentration analysis, TRO40303 plasma AUC(0-∞) (the area under the curve extrapolated from time zero to time infinity), was calculated using Kinetica™, version 4.4.1 (Thermo Electron Corporation, Philadelphia, PA 19103, USA). The results were analyzed in comparison with previous pharmacokinetic data obtained with TRO40303 formulated in HPBCD at 2.5 mg/kg.
Thawed preclinical samples were extracted with acetonitrile, centrifuged, purified on SPEC C2 cartridge (Varian) for the heart samples and analysed along with calibration standards. […]

[4] = tested on: healthy male and post-menopausal female subjects; test: Phase I trial safety and tolerability; assay type: in vivo; conditions: human
Experimental: A randomized, double-blind, placebo controlled study was performed to investigate the safety, tolerability and pharmacokinetics of single i.v. ascending doses of TRO40303 in healthy male and post-menopausal female subjects. The choice of the dose and flow rate escalation process is explained in the Result section. Seventy-two healthy volunteers were randomized, with 18 receiving a placebo and 54 an active liposomal formulation containing 20 mg/mL TRO40303 at final doses ranging from 0.5, 1, 2, 3.5, 6, 10 to 13 mg/kg with escalating flow rates from 0.04 mL/min to 35 mL/min. Within each group, 3 or 6 subjects received TRO40303 and 1 or 2 subjects received the same volume of placebo. The sample size was based on the number of doses and flow rates to be investigated. The 6 verum/2 placebo ratio per group is widely used in single ascending dose studies and provides adequate safety and pharmacokinetic information. The 3 verum/1 placebo ratio used in the last groups was chosen only to explore additional flow rates at previously studied doses.
Continuous recording of adverse events, continuous blood pressure monitoring for 2 hours after dosing and 12-lead electrocardiogram (ECG) at pre-dose, 15 min, 1 h, 4 h, 8 h, 24 h, 72 h and 96 h after end of infusion were performed. Vital signs, physical examination, haematology, blood biochemistry, urinalysis and haemostasis were performed before the study, at specific times after dosing and at the “end of study visit”, 7 days after administration. Blood biochemistry analysis included ASAT, ALAT, alkaline phosphatase, triglycerides, total cholesterol, HDL-cholesterol and LDL-cholesterol.

[5] = tested on: Domestic Yorkshire pigs; test: Porcine liposome-induced cardio-pulmonary distress model; assay type: in vivo; conditions: pig, 10 mg/kg i.v. liposomal formulation
Experimental: Domestic Yorkshire pigs (12-14 weeks, ~25 kg) received multiple i.v. injections of the test material via the external jugular vein at 10 mL/min as follows: saline as a negative control, the liposomal formulation of TRO40303 at 10 mg/kg and a bolus of Doxil® at 0.01 mg/kg as a positive control. Doxil® is a marketed liposomal formulation of doxorubicin administered intravenously that can provoke acute infusion-related reactions.
Hemodynamic changes were monitored continuously for at least 30 min after the end of each test material infusion. Systemic arterial blood pressure (SAP) and pulmonary arterial blood pressure (PAP) changes were evaluated.

[6] = tested on: isolated rat heart; test: Free radical (ESR) and lipid peroxidation (MDA-TBA) measurements in isolated rat heart; conditions: 1 μM
Experimental: To evaluate the effect of 1 μM TRO40303 on ischemia-reperfusion-induced ascorbate release and tissue depletion, effluents from control and treated hearts undergoing the perfusion protocol described above (n = 6/group) were collected for 15 s, 1 min following onset of reflow, and hearts were frozen in liquid nitrogen at the end of the reperfusion period. Ascorbate content in effluents and tissue homogenates was then assessed by quantifying the ascorbyl free radical (AFR)-dimethyl sulfoxide (DMSO) electron spin resonance (ESR) doublet as previously described, DMSO being used to stabilize the ascorbate free radical.
To investigate whether TRO40303 could interfere with ischemia-reperfusion-triggered ROS production, hearts (n = 6) undergoing the perfusion protocol described above received the spin trap nitrone DMPO (25 mM) during the first 5 min of reperfusion. A 15-s collection of the effluents was performed pre-ischemically on three additional hearts from both groups, and 3 min after onset of reflow for the 6 ischemic/reperfused hearts. Samples were immediately stored in liquid nitrogen. The free radical content of DMPO-supplemented from TRO40303-treated and control effluents was determined by ESR in glass capillaries. The ESR signal was acquired 1.5 min after thawing of the sample using the same parameters as for ascorbate except: modulation amplitude 0.0313 mT, receiver gain 5 × 10^4 and sweep rate for each scan 0.167 mT/s.
Lipid peroxidation in heart tissue at the end of reperfusion was evaluated using the malondialdehyde-thiobarbituric acid assay (MDA-TBA) (n = 8/group) as previously described.

[7] = 0.5 mg/kg, 0.08 mL/min, back pain
[8] = 2 mg/kg, 0.64 mL/min, injection site haematoma
[9] = 3.5 mg/kg, 5 mL/min, presyncope
[10] = 6 mg/kg, 7.5 mL/min, infusion site inflammation
[11] = 6 mg/kg, 23 mL/min, vision blurred
[12] = single i.v. 0.5-13 mg/kg, flow rates 0.04-35 mL/min

## CC(C)CCC[C@@H](C)[C@H]1CC[C@H]2[C@@H]3CC/C(=N\O)[C@](C)(CCCO)[C@H]3CC[C@]12C [TRO40303, 3,5-seco-4-nor-cholestan-5-one oxime-3-ol]
[1]
  reduction of infarct size: 38%
[2]
  solubility: ~ 6 mg/mL
[3]
  concentration of TRO40303 in heart tissue: ~ 1 μg/g
[4]; 0.5 mg/kg, 0.08 mL/min
  Emergent AEs: Description: 2 episodes of back pain
[4]; [7]
  Emergent AEs: Intensity: 1 Moderate and 1 Mild
  Emergent AEs: Relationship: Excluded
[4]; 2 mg/kg, 0.64 mL/min
  Emergent AEs: Description: 1 episode of injection site haematoma
[4]; [8]
  Emergent AEs: Intensity: Moderate
  Emergent AEs: Relationship: Excluded
[4]; 3.5 mg/kg, 5 mL/min
  Emergent AEs: Description: 1 episode of presyncope
[4]; [9]
  Emergent AEs: Intensity: Moderate
  Emergent AEs: Relationship: Unlikely
[4]; 6 mg/kg, 7.5 mL/min
  Emergent AEs: Description: 1 episode of infusion site inflammation
[4]; [10]
  Emergent AEs: Intensity: Moderate
  Emergent AEs: Relationship: Probable
[4]; 6 mg/kg, 23 mL/min
  Emergent AEs: Description: 1 episode of vision blurred
[4]; [11]
  Emergent AEs: Intensity: Moderate
  Emergent AEs: Relationship: Possible
[4]; any time, any dose group
  changes in vital signs, ECG parameters, laboratory tests or physical examinations: No relevant changes
[4]; [12]
  clinical tolerability: well tolerated clinically
  serious adverse events: no serious adverse events
[5]
  change in systemic arterial blood pressure (SAP): not changed
[6]; 25 mM DMPO at reperfusion, 3 min after onset of reflow, p < 0.05, n = 6
  decrease of DMPO-OH ESR signal intensity in coronary effluents: 69%
[6]; early reperfusion (1st min), p < 0.001, n = 6
  AFR-DMSO release in the coronary effluents versus untreated hearts: –57%
[6]; end of reflow, p < 0.05, n = 6
  tissue AFR-DMSO versus untreated hearts: +24%
[6]; heart tissue at end of reperfusion, p < 0.01, n = 8
  MDA-TBA formation compared to vehicle-perfused hearts: –65%
